# Data from patent EP1487434B1, “BOTANICAL EXTRACT COMPOSITIONS WITH ANTI-CANCER ACTIVITY COMPRISING ISOLIQUIRITIGENIN” (The Medical Research and Education Trust, priority 2002, dated 2003).
# Legend:
# Format in all cases: cell-based
# LNCaP cells = assay: Cell cycle measurement by DNA content flow cytometry, LNCaP; details: two concentrations, 24-48 hours exposure
# Experimental: (§1) The cells were washed with phosphate buffered saline (PBS) and fixed in ice-cold 70% ethanol. Aliquots of fixed cells were rehydrated in PBS and stained with 1.0 microgram/milliliter DAPI (4,6-diamidino-2-phenylindole from Eastman Kodak, Rochester, NY), and dissolved in 10 millimolar piperazine-N,N-bis-2-ethane-sulfonic acid buffer (Calbiochem, La Jolla, CA) containing 100 millimolar NaCl, 2mM MgCl2 and 0.1% Triton X-100 (Sigma) at pH 6.8 as previously described by Halicka et al. (H. D. Halicka, B. Ardelt, G. Juan, A. Mittelman, S. Chen, F. Traganos and Z. Darzynkiewicz, "Apoptosis and Cell Cycle Effects Induced by Extracts of the Chinese Herbal Preparation of PC SPES", International J. of Oncology (1997), 11: 437-448).
# (§2) The cellular DNA content was measured with an ELITE ESP flow cytometer (Coulter Inc., F1.) using UV laser illumination. The multicycle program was used to deconvolute the DNA frequency histograms to estimate the frequency of cells in different phases of the cell cycle.
# hERα = target: T1, hERα (Homo sapiens, UniProt P03372); assay: ERα-Luc reporter gene activation in transfected HEK 293 cells; details: 0 to 9 µg/ml, 20 hours
# T1 construct: expressed in transfected cells; host or cells: HEK 293 cells (ATCC CRL-1573)
# Source text: (§3) HEK 293 cells (ATCC CRL-1573) were transfected with an expression vector for hERα and hERβ respectively, and an ERE-LUC reporter gene (plus a TK-LUC reporter for normalization) following the protocol of Yoon et al ("Differential activation of wild-type and variant forms of estrogen receptor α by synthetic and natural estrogenic compounds using a promoter containing three estrogen-responsive elements", J. Steroid Biochem. & Molecular Biology (2000), 28: pages 25-32).
# DU-145 = assay: Cell cycle measurement by DNA content flow cytometry, DU-145; details: protocol of Example 3
# Experimental: as §1, §2
# A prolongation in the G2M phase leads to the suppression of DU-145 cell proliferation.
# hERβ = target: T2, hERβ (Homo sapiens, UniProt Q92731); assay: ERβ-Luc reporter gene activation in transfected HEK 293 cells; details: for capability in activating ERβ-Luc reporter gene than the ERα-Luc reporter gene: ERβ-Luc versus ERα-Luc, 1200 min; for ERβ-Luc reporter gene activation: HEK 293 cells, 0 to 9 µg/ml, 20 hours
# T2 construct: expressed in transfected cells; host or cells: HEK 293 cells (ATCC CRL-1573)
# Source text: as §3
# [1] = system: DU-145 (androgen-independent) prostate cancer cells; assay: MTT cell viability assay, DU-145; details: Homo sapiens, DU-145, 72 h, read-out: ED50 values from MTT Assay, DU145
# Source text: (§4) Cancer cell lines: LNCaP, DU-145, and MCF-7 cells were purchased from the American Type Culture Collection. PTX 10, a taxol-resistant ovarian cancer cell line, was obtained from the Brander Cancer Research Laboratory, New York Medical College. Cells were maintained in RPMI 1640 culture media supplemented with 10% heat-inactivated FBS, 5 millimolar glutamine, 50 units/milliliter of penicillin G, and 50 […] of streptomycin. The cells were routinely seeded at 1X 10^5 cells/milliliter in T-75 flasks, allowed to attach overnight, then treated with the herbal extract. At different times, cells were harvested by trypsinization.
# (§5) The MTT assay (MTT = 3-(4,5-dimethylthiazol-2-yl)-2,5-diphenyl tetrazolium bromide) was used to count viable cells. The assay reagents were purchased from Boehringer Mannheim (Roche Diagnosis Corp, Indianapolis, Indiana). […] The protocol for the cell , viability assay was provided by the manufacturer and modified in our laboratory as described below.
# (§6) Prostate or breast (reference) cancer cells were seeded in 96 well microtiter plates at a concentration of 3x10^3 cells per well (MCF-7; breast cancer cells) or 6x10^3 cells per well (LNCaP or DU145; prostate cancer cells), in a volume of 100 microliters of cell culture medium. After 24 hours, 20 microliter aliquots of the compounds at various concentrations were added to the attached cells. […]
# [2] = system: LNCaP (androgen-dependent) prostate cancer cells; assay: MTT cell viability assay, LNCaP; details: Homo sapiens, 72 h, read-out: ED50 values from MTT Assay, LNCaP
# Source text: as §4, §5, §6
# [3] = system: PTX 10, a taxol resistant ovarian cancer cell line; assay: MTT cell viability assay, PTX 10; details: PTX10, 72 h, read-out: ED50, PTX 10 (taxol resistant Ovarian cancer cell)
# [4] = system: MCF-7 breast cancer cells; assay: MTT cell viability assay, MCF-7; details: Homo sapiens, MCF7; concentration giving 50% inhibition of cancer cell growth, 72 hours, linear interpolation; read-out: ED50 values from MTT Assay, MCF7
# Source text: as §4, §5, §6
# T2 sequence (Q92731 whole entry): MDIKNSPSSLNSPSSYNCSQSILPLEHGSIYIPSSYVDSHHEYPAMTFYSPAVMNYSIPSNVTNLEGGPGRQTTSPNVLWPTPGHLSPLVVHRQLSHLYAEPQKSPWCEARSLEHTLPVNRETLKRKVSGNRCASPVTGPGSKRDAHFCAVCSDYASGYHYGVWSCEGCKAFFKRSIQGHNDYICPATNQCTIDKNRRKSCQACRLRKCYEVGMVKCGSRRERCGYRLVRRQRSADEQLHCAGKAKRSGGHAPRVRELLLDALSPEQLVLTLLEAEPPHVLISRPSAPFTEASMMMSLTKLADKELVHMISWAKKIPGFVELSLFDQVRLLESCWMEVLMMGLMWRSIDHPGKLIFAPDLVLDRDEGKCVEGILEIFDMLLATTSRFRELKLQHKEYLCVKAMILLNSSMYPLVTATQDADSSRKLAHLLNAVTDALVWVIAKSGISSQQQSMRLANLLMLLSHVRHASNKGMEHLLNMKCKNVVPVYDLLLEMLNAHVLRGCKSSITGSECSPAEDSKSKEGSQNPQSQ
# T1 sequence (P03372 whole entry): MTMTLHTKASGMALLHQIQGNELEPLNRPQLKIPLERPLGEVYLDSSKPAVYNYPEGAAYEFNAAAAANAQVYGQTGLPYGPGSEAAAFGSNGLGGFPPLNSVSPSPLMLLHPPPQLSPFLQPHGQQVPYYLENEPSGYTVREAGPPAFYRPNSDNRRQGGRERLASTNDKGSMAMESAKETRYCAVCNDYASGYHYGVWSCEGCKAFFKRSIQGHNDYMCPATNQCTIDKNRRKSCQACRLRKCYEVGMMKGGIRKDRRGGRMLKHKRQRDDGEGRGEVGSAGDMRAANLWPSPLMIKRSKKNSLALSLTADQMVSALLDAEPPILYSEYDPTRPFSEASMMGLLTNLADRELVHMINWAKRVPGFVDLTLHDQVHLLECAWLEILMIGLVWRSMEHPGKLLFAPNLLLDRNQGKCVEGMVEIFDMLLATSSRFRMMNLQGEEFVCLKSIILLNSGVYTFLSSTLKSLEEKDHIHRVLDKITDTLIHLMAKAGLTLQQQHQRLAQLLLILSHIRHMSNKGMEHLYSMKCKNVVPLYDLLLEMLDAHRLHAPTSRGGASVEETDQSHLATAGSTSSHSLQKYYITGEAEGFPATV
SMILES,"effect on G1, S, and G2M phases of the LNCaP cell cycle (LNCaP cells)",ERα-Luc reporter gene activation (hERα),effect on DU-145 cell cycle (DU-145),capability in activating ERβ-Luc reporter gene than the ERα-Luc reporter gene (hERβ),ERβ-Luc reporter gene activation (hERβ),IC50 [1] [µg/mL],IC50 [2] [µg/mL],IC50 [3] [µg/mL],IC50 [4] [µg/mL]
"COc1c(O)cc(O)c2c(=O)cc(-c3ccccc3)oc12 [Wogonin, 5,7-dihydroxy-8-methoxy-flavone]",G1 phase arrest,dose-responsive behavior,prolonged the G2M phase,at least 10 times,dose-responsive behavior,,,,
"O=C(/C=C/c1ccc(O)cc1)c1ccc(O)cc1O [isoliquiritigenin, 2',4,4'-trihydroxychalcone]",G2M phase arrest,dose-responsive behavior,,at least 10 times,dose-responsive behavior,7.6,3.51,3.32,3.25
